The values that follow come from patent publication US20140018432A1, “ELECTROCHEMICAL GENERATION OF CHLORINATED UREA DERIVATIVES” (Hercules Incorporated, priority 2012, published 2014).

Series [1] in a line: Stability of aqueous solutions of the chlorinated ureas. It is filed as physicochemical.
In another series the test system is microorganisms. The series can be described thus: Microbiological studies (biocidal activity). The conditions noted are these: no details given.

For the compound `CNC(=O)N(C)Cl` [N-chloro-N,N′-dimethylurea], the “stability compared with N-chlorourea” value in series [1] is reported as “significantly more stable than N-chlorourea”. For the same compound, the stability of solution entry in series [1] (basic solutions (pH 12 and higher, flow cell without membrane)) is “not stable”; in series [1] (neutral or acidic environment), “significantly more stable”. Also, the biocidal activity entry with microorganisms was “potent biocides”.

With `NC(=O)NCl` [N-chlorourea], the biocidal activity entry in the series with microorganisms is recorded as “potent biocides”.
